Data on 5 molecules can be found in patent US20160138049A1, “OXYGEN-TOLERANT CoA-ACETYLATING [sequence] DEHYDROGENASE CONTAINING PATHWAY FOR BIOFUEL PRODUCTION” (The Regents of the University of California, priority 2013, published 2016).

Read-outs that look alike come from different tables or passages of the source.

Series [1] addresses T1, Lactobacillus brevis PduP, CoA-acylating propionaldehyde dehydrogenase (PduP_L.bre, YP_795711, SEQ ID NO:47 and 48), poly-His6 tagged (Levilactobacillus brevis, UniProt Q03Q42).
T1 sequence (Q03Q42 1-477): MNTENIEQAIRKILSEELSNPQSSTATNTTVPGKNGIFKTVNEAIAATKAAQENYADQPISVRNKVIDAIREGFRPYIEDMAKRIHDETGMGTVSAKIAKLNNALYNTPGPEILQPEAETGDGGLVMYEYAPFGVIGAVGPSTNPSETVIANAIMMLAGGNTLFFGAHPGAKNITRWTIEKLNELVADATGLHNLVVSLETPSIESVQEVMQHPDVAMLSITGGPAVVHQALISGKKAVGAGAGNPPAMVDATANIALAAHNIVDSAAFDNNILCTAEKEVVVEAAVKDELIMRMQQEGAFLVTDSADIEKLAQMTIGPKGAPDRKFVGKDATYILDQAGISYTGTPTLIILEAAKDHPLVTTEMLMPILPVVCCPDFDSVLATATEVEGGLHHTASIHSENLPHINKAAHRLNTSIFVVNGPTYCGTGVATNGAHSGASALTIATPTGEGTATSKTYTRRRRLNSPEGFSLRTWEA
The series can be described thus: Kinetic parameters of PduP (CoA-acylating aldehyde dehydrogenase), NADH depletion at 340 nm. It is filed as biochemical. The note with it: for kcat: pH 7.15, 30° C., 500 μM NADH, 1 mM DTT, acyl-CoA 0.03 mM to 2 mM. The method, then:
(§1) Protein purification was done by using His-Spin Protein miniprep purification kit from Zymo following manufacturer's manual. Overnight culture of E. coli strain BL-21(DE3) harboring different pCDF-pdup plasmid was used to inoculate fresh 20 ml LB. The newly inoculated culture was incubated at 37° C. until OD600 nm reaches 0.6 which was then induced with 1 mM IPTG. The induced cultures were then incubated overnight in 30° C. rotary shaker to allow protein expression. The cultures were then harvested by centrifugation at 4,300×g for 20 min. The pellet was then resuspended with 1 mL of Zymo His-binding buffer and mixed with 1 mL of 0.1 mm glass beads (Biospec). The sample was then homogenated using TissueLyser II (Quiagen).
(§2) Enzyme assays were conducted by using Bio-Tek PowerWave XS microplate spectrophotometer. CoA-acylating aldehyde dehydrogenase activity was measured by the decrease of absorbance at 340 nm, corresponding to depletion of NADH. […] For determining specific activity for other chain length acyl-CoA, 500 μM was used. The mixture excluding acyl-CoA was incubated for 5 minutes at 30° C. The addition of the acyl-CoA initiated the reaction. kcat and Km were determined by nonlinear regression fitting to Michaelis-Menten equation using graphing software Origin.
(§3) To characterize these PduP homologues, plasmids harboring individual pduP genes were constructed with a poly-His6 tag (plasmids pCDF-pduP_ahyd, pCDF-pdup_kpne, pCDF-pdup_lbre, pCDF-pdup_lmon, pCDF-pdup_sent, and pCDF-pdup_pgin). PduP homologues were then purified under aerobic condition without cleaving off His tags. The activities of the enzymes were determined using acyl-CoA with different chain lengths, and the disappearance of NADH was monitored.
(§4) The efficiency of these PduP homologues were assessed.

Series [2] deals with Porphyromonas gingivalis PduP, CoA-acylating propionaldehyde dehydrogenase (PduP_P.gin, YP_001928839, SEQ ID NO:51 and 52), poly-His6 tagged (Porphyromonas gingivalis, UniProt B2RIP7). Described as above. To be noted: for kcat: pH 7.15, 30° C., 500 μM NADH, 1 mM DTT, acyl-CoA 0.03 mM to 2 mM. The method, then:
as §1, §2, §3, §4

The target in series [3] is Salmonella enterica PduP, CoA-acylating propionaldehyde dehydrogenase (PduP_S.ent, AAD39015, SEQ ID NO:33 and 34), poly-His6 tagged (Salmonella enterica, UniProt Q9XDN1). The series is described as above. To be noted: for kcat: pH 7.15, 30° C., 500 μM NADH, 1 mM DTT, acyl-CoA 0.03 mM to 2 mM. The method, then: as §1, §2, §3, §4
Sequence of Salmonella enterica PduP, CoA-acylating propionaldehyde dehydrogenase (PduP_S.ent, AAD39015, SEQ ID NO:33 and 34), poly-His6 tagged (Q9XDN1 whole entry): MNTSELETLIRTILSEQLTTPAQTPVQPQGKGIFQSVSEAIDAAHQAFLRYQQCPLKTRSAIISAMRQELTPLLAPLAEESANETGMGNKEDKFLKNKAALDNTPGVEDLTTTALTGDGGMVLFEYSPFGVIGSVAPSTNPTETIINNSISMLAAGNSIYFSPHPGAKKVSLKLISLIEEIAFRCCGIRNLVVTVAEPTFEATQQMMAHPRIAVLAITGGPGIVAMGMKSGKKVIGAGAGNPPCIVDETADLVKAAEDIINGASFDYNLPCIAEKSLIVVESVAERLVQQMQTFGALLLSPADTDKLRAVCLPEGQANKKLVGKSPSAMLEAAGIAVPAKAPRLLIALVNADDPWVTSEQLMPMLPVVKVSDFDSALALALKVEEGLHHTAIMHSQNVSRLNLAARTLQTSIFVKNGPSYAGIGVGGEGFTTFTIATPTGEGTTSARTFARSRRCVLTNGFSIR
Series [4] has as its target Klebsiella pneumoniae PduP, CoA-acylating propionaldehyde dehydrogenase (PduP_K.pne, YP_001336844, SEQ ID NO:45 and 46), poly-His6 tagged (Klebsiella pneumoniae, UniProt A0ACD7U6D7). The description is as above. To be noted: for kcat: pH 7.15, 30° C., 500 μM NADH, 1 mM DTT, acyl-CoA 0.03 mM to 2 mM. On the procedure:
as §1, §2, §3, §4

Series [5] concerns the target Listeria monocytigenes PduP, CoA-acylating propionaldehyde dehydrogenase (PduP_L.mon, NP_464690, SEQ ID NO:49 and 50), poly-His6 tagged (Listeria monocytogenes, UniProt Q8Y7V4). The description is as above. The note with it: for kcat: pH 7.15, 30° C., 500 μM NADH, 1 mM DTT, acyl-CoA 0.03 mM to 2 mM. On the procedure:
as §1, §2, §3, §4

Series [6] concerns S. elongatus strain BUOH-SE. The method, then: S. elongatus PCC7942 cells were grown according to the procedure in “culture medium and condition”. Once growth reached OD730 about 2, the culture was diluted to OD730 of 0.1 with 50 mL fresh BG11 medium containing 50 mM NaHCO3 and appropriate antibiotics. Then, various amounts of n-butanol were added into the culture to achieve the desired concentration (0, 250, 500, 750, and 1000 mg/L). Growth was measured daily. Every two days, 5 mL of culture was removed and 5 mL fresh BG-11 containing 500 mM NaHCO3, appropriate amounts of antibiotics and n-butanol was added back to the culture to ensure sufficient carbon supply.

Series [7] deals with S. elongatus strain BUOH-SE. The series can be described thus: n-Butanol toxicity test (growth). It is filed as cell-based, Synechococcus elongatus PCC 7942. On the procedure:
Growth was measured daily.

Series [8] can be described thus: Substrate chain length specificity of PduP. The note with it: acyl-CoA chain lengths C2 to C12. It is filed as biochemical. On the procedure:
FIG. 3A-B Substrate chain length specificity of CoA-acylating aldehyde dehydrogenases, PduP. A) Specific activity of different PduP (pmol min^−1 mg^−1). B) Relative activity of PduP. Specific activity was determined with substrate concentration of 1 mM acyl-CoA, 500 uM NADH, 1 mM DTT in 50 mM potassium phosphate buffer at pH 7.15 at 30° C.
as §2, §3

Substrate in series [9]: CC(=O)SCCNC(=O)CCNC(=O)[C@H](O)C(C)(C)COP(=O)(O)OP(=O)(O)OC[C@H]1O[C@@H](n2cnc3c(N)ncnc32)[C@H](O)[C@@H]1OP(=O)(O)O
The series can be described thus: purified protein, by the assay type. To be noted: other: pH 7.15, 30° C., 500 μM NADH, 1 mM DTT, acyl-CoA 0.03 mM to 2 mM.

Substrate in series [10]: CCCC(=O)SCCNC(=O)CCNC(=O)[C@H](O)C(C)(C)COP(=O)(O)OP(=O)(O)OC[C@H]1O[C@@H](n2cnc3c(N)ncnc32)[C@H](O)[C@@H]1OP(=O)(O)O
The series can be described thus: purified protein, by the assay type. To be noted: other: pH 7.15, 30° C., 500 μM NADH, 1 mM DTT, acyl-CoA 0.03 mM to 2 mM.

Another series has as its system E. coli strain JCL166. The series can be described thus: E. coli anaerobic growth rescue with PduP and n-butanol pathway. It is filed as cell-based. To be noted: GC of culture medium. The method, then:
Cells of E. coli strain JCL166 and its derivatives were cultured overnight in LB with appropriate antibiotics at 37° C. Overnight cultures (3 μL) were used to inoculate 3 mL of fresh LB media supplemented with 1% glucose and appropriate antibiotics (100 μg/mL ampicillin and 50 μg/mL kanamycin) and 0.1 mM IPTG in 10 mL BD vacutainers. A needle with Millipore PES filter was used to pierce through the rubber cap of the culture. The headspace of these cultures was then purged several times with 95% N2/5% H2 gas using an anaerobic chamber (Coy Lab Products, Grass Lake, Mich.). The needle with filter was removed in anaerobic chamber. These anaerobic cultures were then taken out of anaerobic chamber and incubated in 37° C. rotary shaker. Culture was analyzed 24 hours later for cell density and alcohol content measurement.
These PduP homologues were tested for n-butanol production utilizing an anaerobic growth rescue assay. E. coli strain JCL 166 (ΔadhE, ΔldhA, ΔfrdB) contains gene knock-outs for mixed acid fermentation. Fermentation pathways are essential for E. coli to recycle NADH back into to NAD^+ for the Embden-Meyerhof-Parnas pathway to continue (FIG. 2A). […] The culture medium of these anaerobically grown cultures were analyzed for alcohol production (FIG. 2C) using gas chromatography (GC).

Series [11] in a line: CoA-acylating aldehyde dehydrogenase (PduP) assay, butyryl-CoA reduction. It is filed as biochemical. To be noted: purified under aerobic condition; 500 μM NADH, 1 mM DTT, pH 7.15, 30° C. The method, then:
as §1, §2, §3, §4

[12] abbreviates: kcat/Km butyryl-CoA over kcat/Km acetyl-CoA.

Sequence of Porphyromonas gingivalis PduP, CoA-acylating propionaldehyde dehydrogenase (PduP_P.gin, YP_001928839, SEQ ID NO:51 and 52), poly-His6 tagged (B2RIP7 entry or part of it): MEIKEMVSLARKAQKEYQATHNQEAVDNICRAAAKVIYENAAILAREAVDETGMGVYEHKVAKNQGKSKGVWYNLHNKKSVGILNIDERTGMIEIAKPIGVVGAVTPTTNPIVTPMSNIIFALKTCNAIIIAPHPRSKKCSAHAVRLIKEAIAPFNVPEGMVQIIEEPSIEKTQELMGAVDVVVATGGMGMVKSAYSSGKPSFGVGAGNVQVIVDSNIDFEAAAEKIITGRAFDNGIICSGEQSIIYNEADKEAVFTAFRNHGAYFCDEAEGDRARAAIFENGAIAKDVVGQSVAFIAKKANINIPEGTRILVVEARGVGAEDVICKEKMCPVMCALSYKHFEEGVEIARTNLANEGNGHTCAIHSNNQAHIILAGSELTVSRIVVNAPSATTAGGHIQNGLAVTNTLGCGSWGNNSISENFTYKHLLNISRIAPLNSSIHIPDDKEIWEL
Sequence of Listeria monocytigenes PduP, CoA-acylating propionaldehyde dehydrogenase (PduP_L.mon, NP_464690, SEQ ID NO:49 and 50), poly-His6 tagged (Q8Y7V4 entry or part of it): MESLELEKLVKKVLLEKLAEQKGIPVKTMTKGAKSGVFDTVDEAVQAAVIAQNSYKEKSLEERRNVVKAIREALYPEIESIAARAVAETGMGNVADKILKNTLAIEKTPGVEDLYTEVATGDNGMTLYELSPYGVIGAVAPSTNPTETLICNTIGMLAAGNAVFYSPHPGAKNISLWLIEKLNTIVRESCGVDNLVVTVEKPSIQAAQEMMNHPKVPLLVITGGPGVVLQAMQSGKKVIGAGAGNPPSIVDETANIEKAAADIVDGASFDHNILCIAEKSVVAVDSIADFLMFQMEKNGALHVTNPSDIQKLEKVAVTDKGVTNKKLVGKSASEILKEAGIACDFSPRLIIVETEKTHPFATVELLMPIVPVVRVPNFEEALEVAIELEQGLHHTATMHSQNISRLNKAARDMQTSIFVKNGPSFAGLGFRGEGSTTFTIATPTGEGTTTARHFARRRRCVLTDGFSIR

Regarding `CCCC(=O)SCCNC(=O)CCNC(=O)[C@H](O)C(C)(C)COP(=O)(O)OP(=O)(O)OC[C@H]1O[C@@H](n2cnc3c(N)ncnc32)[C@H](O)[C@@H]1OP(=O)(O)O` [Butyryl-CoA, butyryl-CoA], the “Ratio C4:C2 (butyryl-CoA to acetyl-CoA catalytic efficiency ratio)” value in [1] (setting [12]) is 2; in series [2] (setting [12]), 0.6; in series [3] (setting [12]), 6.8; in [4] (setting [12]), 5; in series [5] (setting [12]) it was 1.4. The kcat in series [1] is 3.37 ± 0.19 s⁻¹; in series [2], 0.19 ± 0.02 s⁻¹; in series [3], 25.38 ± 1.81 s⁻¹; in series [4], 7.02 ± 0.64 s⁻¹; in series [5], 11.99 ± 1.56 s⁻¹.
As for `CCCCO` [n-butanol], the “growth of S. elongatus strain BUOH-SE” value in [6] (750 mg/L of n-butanol in culture medium) was “visible growth retardation”; in series [6] (1 g/L of n-butanol) it was “cell growth is inhibited”; in series [7] (750 mg/L n-butanol in culture medium), “visible growth retardation”; in series [7] (1 g/L n-butanol) it was “cell growth is inhibited”.
With `CC(=O)SCCNC(=O)CCNC(=O)[C@H](O)C(C)(C)COP(=O)(O)OP(=O)(O)OC[C@H]1O[C@@H](n2cnc3c(N)ncnc32)[C@H](O)[C@@H]1OP(=O)(O)O` [Acetyl-CoA, acetyl-CoA], the kcat in series [1] came out at 0.26 ± 0.10 s⁻¹; in series [2], 0.08 ± 0.01 s⁻¹; in series [3] it was 14.81 ± 1.00 s⁻¹; in [4] it was 4.63 ± 0.19 s⁻¹; in series [5], 11.33 ± 0.97 s⁻¹.

B1: Lactobacillus brevis PduP, CoA-acylating propionaldehyde dehydrogenase (PduP_L.bre, YP_795711, SEQ ID NO:47 and 48), poly-His6 tagged (Levilactobacillus brevis … (protein)
chain: MNTENIEQAIRKILSEELSNPQSSTATNTTVPGKNGIFKTVNEAIAATKAAQENYADQPISVRNKVIDAIREGFRPYIEDMAKRIHDETGMGTVSAKIAKLNNALYNTPGPEILQPEAETGDGGLVMYEYAPFGVIGAVGPSTNPSETVIANAIMMLAGGNTLFFGAHPGAKNITRWTIEKLNELVADATGLHNLVVSLETPSIESVQEVMQHPDVAMLSITGGPAVVHQALISGKKAVGAGAGNPPAMVDATANIALAAHNIVDSAAFDNNILCTAEKEVVVEAAVKDELIMRMQQEGAFLVTDSADIEKLAQMTIGPKGAPDRKFVGKDATYILDQAGISYTGTPTLIILEAAKDHPLVTTEMLMPILPVVCCPDFDSVLATATEVEGGLHHTASIHSENLPHINKAAHRLNTSIFVVNGPTYCGTGVATNGAHSGASALTIATPTGEGTATSKTYTRRRRLNSPEGFSLRTWEA
For B1, the “Acyl-CoA substrate favoured (highest specific activity)” value in [8] was “hexanoyl-CoA”. Also, the Michaelis constant (Km) is 76.0 ± 38.2 µM in series [9] and 534.3 ± 59.8 µM in series [10]. In addition, the “Alcohol production from the growth rescue broth, n-butanol versus ethanol” value in the series with E. coli strain JCL166 is listed as “more n-butanol than ethanol”. Further, the “Specific activity for butyryl-CoA reduction” value in [11] was determined as 2.5 ± 0.2 µmol/min/mg.

B2: K. pne: PduP homologue from Klebsiella pneumoniae, YP_001336844; SEQ ID NO:45 and 46 (protein, listed as Klebsiella pneumoniae)
chain: MNTAELETLIRTILSEKLAPTPPAPQQEQGIFCDVGSAIDAAHQAFLRYQQCPLKTRSAIISALRETLAPELATLAEESATETGMGNKEDKYLKNKAALENTPGIEDLTTSALTGDGGMVLFEYSPFGVIGAVAPSTNPTETIINNSISMLAAGNSVYFSPHPGAKKVSLKLIARIEEIAYRCSGIRNLVVTVAEPTFEATQQMMSHPLIAVLAITGGPGIVAMGMKSGKKVIGAGAGNPPCIVDETADLVKAAEDIISGAAFDYNLPCIAEKSLIVVASVADRLIQQMQDFDALLLSRQEADTLRAVCLPDGAANKKLVGKSPAALLAAAGLAVPPRPPRLLIAEVEANAPWVTCEQLMPVLPIVRVADFDSALALALRVEEGLHHTAIMHSQNVSRLNLAARTLQTSIFVKNGPSYAGIGVGGEGFTTFTIATPTGEGTTSARTFARLRRCVLTNGFSIR
Consider B2, for which, in series [8], the “Acyl-CoA substrate favoured (highest specific activity)” value is reported as “highest for propionyl-CoA reduction”. The “Alcohol production from the growth rescue broth, n-butanol versus ethanol” value with E. coli strain JCL166 is on record as “more n-butanol than ethanol”. For the same molecule, the “Specific activity for butyryl-CoA reduction” value in [11] was determined as 8.9 ± 4.6 µmol/min/mg.
